Experimental data taken from US12605412B2, “Microbial compositions for improving the efficacy of anticancer treatments based on immune checkpoint inhibitors and/or tyrosine kinase inhibitors and markers of responsiveness to such treatments” (INSTITUT GUSTAVE ROUSSY, priority 2019, dated 2026).

Tested on: advanced renal cell carcinoma
Assay: Clinical outcome of nivolumab (anti-PD-1) in RCC patients of the NIVOREN trial, stratified by antibiotic use
Assay type: in vivo, human
Method: The patients were included from Gustave Roussy Cancer Campus, France. Inclusion criteria were patients with stage IV clear cell or non-clear cell RCC histology and disease progression during or after >1 prior anti-angiogenic therapy regimens who received nivolumab intravenously (i.v.) 3 mg/kg every 2 weeks until disease progression or intolerable toxicity in the NIVOREN GETUG-AFU 26 Phase II trial (EudraCT: 2015-004117-24) (Albiges et al., 2018). Computer tomography (CT) scans were performed at baseline and every 8 to 12 weeks for the first year and then every 12 to 15 weeks until disease progression. Tumor response was assessed using the Response Evaluation Criteria in Solid Tumors version 1.1 (RECIST v1.1) (Eisenhauer et al., 2009). […] We evaluated objective response rate defined as the number of patients with a complete response and a partial response. The best overall response was defined as the investigator-assessed best response (complete response, partial response, stable disease, or progressive disease) from the start date of nivolumab to objectively documented disease progression or subsequent therapy, whichever occurred first. […] Forty patients were analyzed in addition to 60 non-small cell lung cancer patients in the Science 2018 paper (Routy et al., 2018). […] For the first time, RCC were analyzed as a single and independent cohort in this paper. […]

nivolumab [ICB]
objective response rate (ORR) (RCC patients on nivolumab, noATB subgroup, RECIST v1.1): 28%
primary resistance (no ATB subgroup during ICB therapy): 33%
